Data on 20 compounds can be found in ChEMBL document CHEMBL6114933, “Discovery of 3-acyl-2-anilino-1,4-dihydroquinolin-4-one derivatives as potential inhibitors of methicillin-resistant Staphylococcus aureus” (Bioorg Med Chem Lett, 2025).

Data set [1] has as its system Staphylococcus aureus. Put plainly: Ex vivo antibacterial activity against methicillin-resistant Staphylococcus aureus assessed as inhibition of bacterial growth by cell infection model. Format: functional.
For data set [2], the system named is Staphylococcus aureus. Briefly: Antibacterial activity against drug-resistant Staphylococcus aureus USA300 JE2 assessed as inhibition of bacterial growth. It counts as functional.
The subject of data set [3] is Staphylococcus aureus. Briefly: Antibacterial activity against drug-sensitive Staphylococcus aureus ATCC25923 assessed as inhibition of bacterial growth. Format: functional.
A short description of data set [4]: Cytotoxicity against human HepG2 cells. It counts as toxicity, cell-based.
A short description of data set [5]: Cytotoxicity against African green monkey Vero cells. It counts as toxicity, cell-based, Chlorocebus sabaeus.
Data set [6] has as its target Voltage-gated inwardly rectifying potassium channel KCNH2 (Homo sapiens, UniProt Q12809). Put plainly: Inhibition of hERG by binding assay. It counts as toxicity.
Data set [7] in a line: AUC (0 to infinity) in rat at 2 mg/kg, iv. Format: ADME, organism-based. To be noted: in vivo.
The nature of data set [8]: Metabolic stability in mouse liver microsomes parent compound remaining measured after 30 mins. To be noted: read-out: Stability. Format: ADME, Microsome.
Data set [9] is described as follows: Oral bioavailability in rat at 5 mg/kg. To be noted: in vivo. It counts as ADME, organism-based.
Data set [10] in a line: Clearance in rat at 2 mg/kg, iv. It counts as ADME, organism-based. To be noted: in vivo.
A short description of data set [11]: AUC(0 to 24 hrs) in rat at 2 mg/kg, iv. To be noted: in vivo. It counts as ADME, organism-based.
Data set [12] is described as follows: Cytotoxicity against CHO-K1 cells. Format: toxicity, cell-based, Cricetulus griseus. To be noted: Chinese hamster.
A short description of data set [13]: Cytotoxicity against HFL1 cells. Format: toxicity, cell-based. To be noted: human.
Data set [14] is described as follows: Cytotoxicity against mouse L929 cells. Format: toxicity, cell-based.
Data set [15] is described as follows: Metabolic stability in human liver microsomes assessed as parent compound remaining measured after 30 mins. To be noted: read-out: Stability. It counts as ADME, Microsome.
Data set [16] in a line: Cmax in rat at 5 mg/kg, po or 2 mg/kg, iv. Format: ADME, organism-based. To be noted: in vivo.
Data set [17] can be described thus: Half life in rat at 2 mg/kg, iv. It counts as ADME, organism-based. To be noted: in vivo.
Data set [18] is described as follows: Metabolic stability in rat liver microsomes assessed as parent compound remaining measured after 30 mins. It counts as ADME, Microsome. To be noted: read-out: Stability.
A short description of data set [19]: Cytotoxicity against mouse NIH3T3 cells. It counts as toxicity, cell-based.

Values after ≈ are worked out from the molar mass of the structure shown. A value given as a limit tells only on which side of the number the result lay.

Voltage-gated inwardly rectifying potassium channel KCNH2, sequence (Q12809 whole entry): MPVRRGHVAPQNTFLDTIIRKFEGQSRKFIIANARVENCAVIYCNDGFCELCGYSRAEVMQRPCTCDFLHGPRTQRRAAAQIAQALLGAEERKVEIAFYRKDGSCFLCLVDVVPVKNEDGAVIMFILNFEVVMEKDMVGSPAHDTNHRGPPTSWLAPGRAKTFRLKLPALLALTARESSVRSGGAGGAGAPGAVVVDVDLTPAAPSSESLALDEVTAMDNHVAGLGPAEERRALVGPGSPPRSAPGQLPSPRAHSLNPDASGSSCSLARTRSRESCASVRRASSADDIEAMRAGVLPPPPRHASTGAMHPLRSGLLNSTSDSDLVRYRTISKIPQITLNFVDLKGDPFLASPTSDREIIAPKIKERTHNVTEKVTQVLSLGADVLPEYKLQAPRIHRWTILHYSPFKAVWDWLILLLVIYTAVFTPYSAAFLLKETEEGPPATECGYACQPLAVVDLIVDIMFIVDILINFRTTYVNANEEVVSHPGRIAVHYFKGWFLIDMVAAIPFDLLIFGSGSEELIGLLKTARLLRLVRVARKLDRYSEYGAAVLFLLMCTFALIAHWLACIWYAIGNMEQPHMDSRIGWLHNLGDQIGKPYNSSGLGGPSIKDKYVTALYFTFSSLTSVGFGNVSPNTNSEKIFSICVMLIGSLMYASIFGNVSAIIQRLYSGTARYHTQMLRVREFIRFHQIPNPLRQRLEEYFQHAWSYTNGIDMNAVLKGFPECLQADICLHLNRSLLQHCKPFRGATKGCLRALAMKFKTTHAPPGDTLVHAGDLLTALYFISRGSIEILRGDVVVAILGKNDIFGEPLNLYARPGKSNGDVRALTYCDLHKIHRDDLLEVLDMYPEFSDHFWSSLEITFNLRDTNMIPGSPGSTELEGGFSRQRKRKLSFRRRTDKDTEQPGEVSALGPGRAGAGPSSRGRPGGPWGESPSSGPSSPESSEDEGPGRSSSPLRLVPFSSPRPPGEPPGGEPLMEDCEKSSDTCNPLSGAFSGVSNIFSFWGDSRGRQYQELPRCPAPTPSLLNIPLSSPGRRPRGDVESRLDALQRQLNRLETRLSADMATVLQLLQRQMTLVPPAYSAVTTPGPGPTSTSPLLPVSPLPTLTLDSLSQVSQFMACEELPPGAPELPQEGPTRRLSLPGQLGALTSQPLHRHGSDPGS

Consider `CC(=O)c1c(Nc2ccc(F)c(F)c2F)[nH]c2c(F)cc(F)cc2c1=O`, for which the MIC50 in the data set on Staphylococcus aureus [1] was 6.79 µM (≈ 2.5 µg/mL); in the data set with Staphylococcus aureus [2], 0.95 µM (≈ 0.35 µg/mL); with Staphylococcus aureus [3] it was 1.11 µM (≈ 0.409 µg/mL).
As for `CC(=O)c1c(NCc2ccc(F)cc2)[nH]c2c(F)cc(F)cc2c1=O`, the MIC50 in the data set on Staphylococcus aureus [2] and in the data set with Staphylococcus aureus [3] was over 20 µM each time.
In the case of `COc1ccc(Nc2[nH]c3c(F)cc(F)cc3c(=O)c2C(C)=O)cc1`, the MIC50 in the data set on Staphylococcus aureus [2] and with Staphylococcus aureus [3] was over 20 µM throughout.
For `CC(C)C(=O)c1c(Nc2ccc(F)cc2F)[nH]c2c(Cl)cc(Cl)c(Cl)c2c1=O`, the IC50 is over 256 µM in data set [4]; 61.3 µM in [5]; 60 µM in data set [6]; 4.9 µM in data set [12]; 10.6 µM in data set [13]; over 100 µM in data set [14]. This compound came in with a half-inhibitory concentration (IC50) in [19] of 67.5 µM. Besides, the values for the MIC50 in the data set with Staphylococcus aureus [1], in the data set with Staphylococcus aureus [2] and in the data set on Staphylococcus aureus [3] were 3.9 µM (≈ 1.74 µg/mL), 0.06 µM (≈ 0.0267 µg/mL) and 0.05 µM (≈ 0.0223 µg/mL), respectively. The AUC in [7] was determined as 175.71 uM.hr/ml; in data set [11], 31.97 uM.hr/ml. For the same compound, the remaining at 0.5 h amounted to 68.1% in [8], 95.6% in [15] and 81.9% in [18]. In addition, the bioavailability in [9] was over 99.9%. The same compound had a clearance in data set [10] of 0.5 mL/min/kg. This compound registered a Cmax in [16] of 5.91 uM/ml. In addition, the half-life in [17] was 25.6 h.
With `CC(=O)c1c(N2CCCCC2)[nH]c2c(F)cc(F)cc2c1=O`, the MIC50 in the data set on Staphylococcus aureus [2] and with Staphylococcus aureus [3] was over 20 µM throughout.
As to `CC(C)C(=O)c1c(Nc2ccc(F)cc2F)[nH]c2c(F)cc(F)cc2c1=O`, the MIC50 came out at 10 µM (≈ 3.79 µg/mL) in the data set on Staphylococcus aureus [1], 1.27 µM (≈ 0.48 µg/mL) in the data set with Staphylococcus aureus [2] and 1.36 µM (≈ 0.515 µg/mL) with Staphylococcus aureus [3].
Turning to `CC(=O)c1c(N2CCOCC2)[nH]c2c(F)cc(F)cc2c1=O`, the MIC50 in the data set on Staphylococcus aureus [2] and with Staphylococcus aureus [3] was over 20 µM each time.
In the case of `CC(C)C(=O)c1c(Nc2ccc(F)c(F)c2F)[nH]c2c(F)cc(F)cc2c1=O`, the half-maximal inhibitory concentration (IC50) is 63.7 µM in [4], 86.1 µM in data set [5] and over 100 µM in data set [6]. Also, the MIC50 in the data set with Staphylococcus aureus [1] turned out to be 0.71 µM (≈ 0.281 µg/mL); in the data set with Staphylococcus aureus [2], 0.2 µM (≈ 0.0793 µg/mL); in the data set with Staphylococcus aureus [3], 0.18 µM (≈ 0.0713 µg/mL). The values for the AUC in data set [7] and in [11] were 28.9 uM.hr/ml and 28.3 uM.hr/ml, respectively. In addition, the bioavailability in data set [9] is over 55.8%. The compound also gave a CL in data set [10] (iv, 2 mg/kg) of 1.2 mL/min/kg. For the same compound, the Cmax in [16] is 2.32 uM/ml.
In the case of `CC(=O)c1c(NCc2ccc(F)cc2F)[nH]c2c(F)cc(F)cc2c1=O`, the MIC50 with Staphylococcus aureus [2] and in the data set on Staphylococcus aureus [3] was over 20 µM in each case.
In the case of `CC(=O)c1c(Nc2ccc(F)cc2F)[nH]c2c(F)cc(F)cc2c1=O`, the MIC50 turned out to be 9.48 µM (≈ 3.32 µg/mL) in the data set with Staphylococcus aureus [1], 3.84 µM (≈ 1.35 µg/mL) in the data set on Staphylococcus aureus [2] and 4.41 µM (≈ 1.54 µg/mL) with Staphylococcus aureus [3].
As for `CC(C)C(=O)c1c(Nc2ccc(F)c(F)c2F)[nH]c2c(Cl)cc(Cl)c(Cl)c2c1=O`, it took 31.2 µM to reach half-maximal inhibition in [4] (IC50). Moreover, the figures for the MIC50 in the data set with Staphylococcus aureus [1], with Staphylococcus aureus [2] and in the data set on Staphylococcus aureus [3] were 0.57 µM (≈ 0.264 µg/mL), 0.05 µM (≈ 0.0232 µg/mL) and 0.04 µM (≈ 0.0185 µg/mL), respectively.
On to `COc1ccc(CNc2[nH]c3c(F)cc(F)cc3c(=O)c2C(C)=O)cc1`, for which the MIC50 in the data set on Staphylococcus aureus [2] and with Staphylococcus aureus [3] was over 20 µM each time.
Take `CCN(CC)CCCC(C)Nc1[nH]c2c(F)cc(F)cc2c(=O)c1C(C)=O` (centres undefined): the MIC50 in the data set on Staphylococcus aureus [2] and in the data set with Staphylococcus aureus [3] was over 20 µM in each case.
Turning to `CC(=O)c1c(Nc2ccc(Cl)cc2Cl)[nH]c2c(Cl)ccc(C(F)(F)F)c2c1=O`, the MIC50 with Staphylococcus aureus [1] was 15.2 µM (≈ 6.83 µg/mL); in the data set with Staphylococcus aureus [2], 0.41 µM (≈ 0.184 µg/mL); in the data set on Staphylococcus aureus [3] it was 0.44 µM (≈ 0.198 µg/mL).
In turn, `CC(C)C(=O)c1c(Nc2ccc(Cl)cc2Cl)[nH]c2c(F)cc(F)cc2c1=O` displayed a concentration for half-maximal inhibition (IC50) in [4] of 39 µM. Also, the MIC50 in the data set with Staphylococcus aureus [1] amounted to 1.45 µM (≈ 0.596 µg/mL); in the data set on Staphylococcus aureus [2] it was 0.19 µM (≈ 0.0781 µg/mL); with Staphylococcus aureus [3], 0.2 µM (≈ 0.0822 µg/mL).
As for `CC(=O)c1c(Nc2ccc(Cl)cc2Cl)[nH]c2c(Cl)cc(Cl)c(Cl)c2c1=O`, the figures for the MIC50 in the data set on Staphylococcus aureus [1], in the data set on Staphylococcus aureus [2] and in the data set on Staphylococcus aureus [3] were 34.8 µM (≈ 15.7 µg/mL), 0.27 µM (≈ 0.122 µg/mL) and 0.28 µM (≈ 0.126 µg/mL), respectively.
The corresponding values for `CC(=O)c1c(Nc2ccc(Cl)cc2Cl)[nH]c2c(F)cc(F)cc2c1=O` are 10.1 µM (≈ 3.88 µg/mL), 0.39 µM (≈ 0.149 µg/mL) and 0.41 µM (≈ 0.157 µg/mL).
Turning to `CC(=O)c1c(Nc2cc(F)cc(F)c2)[nH]c2c(F)cc(F)cc2c1=O`, the MIC50 in the data set on Staphylococcus aureus [2] and with Staphylococcus aureus [3] was over 20 µM throughout.
As to `CC[C@H]1OC(=O)[C@H](C)[C@@H](O[C@H]2C[C@@](C)(OC)[C@@H](O)[C@H](C)O2)[C@H](C)[C@@H](O[C@@H]2O[C@H](C)C[C@H](N(C)C)[C@H]2O)[C@](C)(O)C[C@@H](C)C(=O)[C@H](C)[C@@H](O)[C@]1(C)O` [ERYTHROMYCIN], in the data set with Staphylococcus aureus [3], the MIC50 turned out to be 0.74 µM (≈ 0.543 µg/mL).
Consider `CN[C@H](CC(C)C)C(=O)N[C@H]1C(=O)N[C@@H](CC(N)=O)C(=O)N[C@H]2C(=O)N[C@H]3C(=O)N[C@H](C(=O)N[C@H](C(=O)O)c4cc(O)cc(O)c4-c4cc3ccc4O)[C@H](O)c3ccc(c(Cl)c3)Oc3cc2cc(c3O[C@@H]2O[C@H](CO)[C@@H](O)[C@H](O)[C@H]2O[C@H]2C[C@](C)(N)[C@H](O)[C@H](C)O2)Oc2ccc(cc2Cl)[C@H]1O` [VANCOMYCIN], for which the MIC50 in the data set on Staphylococcus aureus [3] is 1.97 µM (≈ 2.86 µg/mL).
